PMC4701221, “Novel Promising Estrogenic Receptor Modulators: Cytotoxic and Estrogenic Activity of Benzanilides and Dithiobenzanilides” (PLoS ONE, 2016)
Positions count from the first letter of the chain named.

Experiments:
[1] = biological target: T1, ERα W383S (Homo sapiens, UniProt P03372, W383S); experiment: Estrogen Receptor luciferase assay in HEK293 cells transfected with ERα W383S; assay type: cell-based; details: HEK293, Fig 6A
T1 construct: expressed in transfected cells; host or cells: HEK293
T1 sequence (P03372 1-595 W383S): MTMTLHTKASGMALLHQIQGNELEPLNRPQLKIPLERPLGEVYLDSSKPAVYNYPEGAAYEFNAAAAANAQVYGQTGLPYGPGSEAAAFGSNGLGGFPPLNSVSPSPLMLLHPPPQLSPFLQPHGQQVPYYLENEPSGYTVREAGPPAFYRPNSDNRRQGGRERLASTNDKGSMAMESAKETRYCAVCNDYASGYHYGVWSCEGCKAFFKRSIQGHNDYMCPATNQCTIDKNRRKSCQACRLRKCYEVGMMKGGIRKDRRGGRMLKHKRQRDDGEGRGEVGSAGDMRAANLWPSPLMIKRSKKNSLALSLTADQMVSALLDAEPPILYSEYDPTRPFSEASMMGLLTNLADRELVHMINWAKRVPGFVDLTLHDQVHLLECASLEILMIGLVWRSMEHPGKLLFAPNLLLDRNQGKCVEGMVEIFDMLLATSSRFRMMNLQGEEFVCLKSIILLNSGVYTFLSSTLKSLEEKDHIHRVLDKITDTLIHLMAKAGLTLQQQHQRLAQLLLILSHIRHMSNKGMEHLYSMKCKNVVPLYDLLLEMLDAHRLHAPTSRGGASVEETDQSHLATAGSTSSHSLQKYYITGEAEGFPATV
From the text: To obtain a eukaryotic vector expressing only the ER-α nuclear receptor, a construct was designed by cloning a KpnI-BamHI fragment from plasmid pEGFP-C1-ERα containing the ERα coding sequence that includes a stop signal into the pEGFP-N3 plasmid (Clontech Laboratories, Palo Alto, CA) under the control of the CMV promoter. […] For mock transfections, pEGFP-N3 plasmid was digested with BglII and NotI and religated after polishing DNA ends to remove GFP coding sequence. Plasmid sequence was confirmed by automatic sequencing. Prior to transfection, cells were seeded in 48 well plates at density of 1.5 x 10^4 cells/well and incubated for 24 h to reach a cell confluence of 80–90%. […] MCF-7 cells, which endogenously express ERα receptor, were transfected with p3xERRE/ERE-luciferase plus the pRLTK Renilla luciferase control plasmid (95:5). Firefly and Renilla luciferase activities were measured using the Dual Luciferase Assay System (Promega, Madison, WI, USA), following a standard protocol using a Sirius L luminometer (Berthold Technologies, Bad Wildbad, Germany). Data were expressed as relative changes in luciferase activity and normalized to 100%.
Plasmids for the expression of the ERα W383A and ER-α W383S mutated receptors were constructed by the quick change site directed mutagenesis method using plasmid pEGFP-N-ERα as template.

[2] = biological target: T2, estrogen receptor (Homo sapiens, UniProt P03372); experiment: Estrogen Receptor luciferase assay in MCF-7 cells (endogenous ER); assay type: cell-based; details: MCF-7 transfected with p3xERRE/ERE-luciferase, Fig 3C
T2 construct: MCF-7 cells, which endogenously express ERα receptor; endogenous in cells; host or cells: MCF-7
T2 sequence (P03372 1-595): T1 sequence (P03372 1-595 W383S) with S383W
From the text: To obtain a eukaryotic vector expressing only the ER-α nuclear receptor, a construct was designed by cloning a KpnI-BamHI fragment from plasmid pEGFP-C1-ERα containing the ERα coding sequence that includes a stop signal into the pEGFP-N3 plasmid (Clontech Laboratories, Palo Alto, CA) under the control of the CMV promoter. This construction was termed pEGFP-N-ERα, and although it encoded both human ERα receptor and GFP protein, only the former is expressed. For mock transfections, pEGFP-N3 plasmid was digested with BglII and NotI and religated after polishing DNA ends to remove GFP coding sequence. Plasmid sequence was confirmed by automatic sequencing. Prior to transfection, cells were seeded in 48 well plates at density of 1.5 x 10^4 cells/well and incubated for 24 h to reach a cell confluence of 80–90%. […] MCF-7 cells, which endogenously express ERα receptor, were transfected with p3xERRE/ERE-luciferase plus the pRLTK Renilla luciferase control plasmid (95:5). Firefly and Renilla luciferase activities were measured using the Dual Luciferase Assay System (Promega, Madison, WI, USA), following a standard protocol using a Sirius L luminometer (Berthold Technologies, Bad Wildbad, Germany). Data were expressed as relative changes in luciferase activity and normalized to 100%.

## Fc1ccc(NC(=S)c2ccc(NC(=S)c3ccc(F)cc3)cc2)cc1 [Compound 18]
[1]
  Activation of ER dependent transcription, ERα W383S vs wild type: less active
[2]
  Transcriptional (luciferase) activity in MCF-7: significantly higher transcriptional activity compared to estradiol
